The text below walks through data of patent publication US20080021042A1, “Composition For Controlling Neuropathic Pain” (priority 2004, published 2008).

The test system of data set [1] is motor coordination. Put plainly: motor coordination test (mice rotating rod test, Rota-rod). The settings on record: 30 mg/kg orally, 16 rpm, cut-off 60 seconds, FIG. 4. The class given is in vivo, mouse. The protocol:
The effect of the compound of Example 1 on motor coordination was evaluated by means of mice rotating rod test.
Five male BALB/c, 6-7 weeks old mice per group were used. The mouse was trained for 2 or more days so that it could remain on the Rota-rod treadmill (Ugo Basile) in 3 cm in diameter rotating at 16 rpm for at least 60 seconds when it was placed on the rod with the head directed against the direction of rotation. Before the evaluation, three trials were conducted with 10 min or more intervals and the mice which could remain on the rod more than 60 seconds in all three times were selected for the evaluation. The selected mice were divided into test groups.
The time obtained in the third trial was used as the before administration value. Mice were orally received 30 mg/kg of the compound of Example 1 or gabapentin and placed on the rotating rod. The duration of time the mouse remained on the rod was recorded. A cut-off time of 60 seconds was employed and when an animal could remain more than 60 seconds, the time was recorded as 60 seconds.

The subject of data set [2] is neuropathic pain. The conditions noted are these: oral administration, in general; cited from earlier work.

SMILES strings stand for the structures.

Turning to `NCC1(CC(=O)O)CCCCC1` [gabapentin], the “duration of time the mouse remained on the rotating rod” value in data set [1] is “no reduction of the remaining time”. Besides, the “onset of analgesic action” value in data set [2] is 1 to 2 h.
